Data published in US5656637A, “Thiazole derivatives” (Yamanouchi Pharmaceutical Co., Ltd., priority 1990, dated 1997).
Read-outs that look alike come from different tables or passages of the source.

Experiments:
[1] = target: T1, 5-HT3 receptor (Rattus norvegicus, UniProt P35563); assay: Effects of 5-HT3 receptor antagonists on the action of the compound of the present invention (decreases in heart rate and blood pressure); format: in vivo, rat (male Wistar); settings: GR38032F 30 μg/kg i.v. or ICS 205-930 0.1-1 μg/kg i.v., 10 minutes before the compound of the present invention
T1 construct: Male Wistar rats, 9 weeks old, were anesthetized with urethane; from tissue; host or cells: whole animal in vivo: anesthetized male Wistar rat (endogenous receptor; tissue not given)
T1 sequence (P35563 24-483): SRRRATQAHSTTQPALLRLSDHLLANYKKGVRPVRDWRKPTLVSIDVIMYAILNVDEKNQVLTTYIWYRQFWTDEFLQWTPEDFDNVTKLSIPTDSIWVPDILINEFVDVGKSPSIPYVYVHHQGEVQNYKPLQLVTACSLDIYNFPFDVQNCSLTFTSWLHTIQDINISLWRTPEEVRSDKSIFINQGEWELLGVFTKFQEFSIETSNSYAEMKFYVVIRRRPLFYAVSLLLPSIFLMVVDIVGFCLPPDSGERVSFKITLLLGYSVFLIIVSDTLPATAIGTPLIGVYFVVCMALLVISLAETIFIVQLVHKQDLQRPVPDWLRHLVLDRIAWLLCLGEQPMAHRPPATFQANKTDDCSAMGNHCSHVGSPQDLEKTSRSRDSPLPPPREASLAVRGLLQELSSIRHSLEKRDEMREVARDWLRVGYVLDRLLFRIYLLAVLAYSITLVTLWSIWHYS
Experimental: Male Wistar rats, 9 weeks old, were anesthetized with urethane 1 g/kg i.p. and the blood pressure and the heart rate were determined under artificial ventilation. […] In addition, it was confirmed by using 5-HT3 receptor antagonists that the changes caused by administration of the compound of the present invention were 5-HT3 receptor-mediated responses.
2) Effects of 5-HT3 receptor antagonists on the action of the compound of the present invention
GR38032F (30 μg/kg i.v.) or ICS 205-930 (0.1-1 μg/kg i.v.), 10 minutes before administration of the compound of the present invention.

[2] = target: T1, 5-HT3 receptor; assay: 5-HT3 receptor stimulating action (Bezold-Jarisch reflex evoking action) in anesthetized rat, i.v.; format: in vivo, rat (male Wistar); settings: for ED50: iv, read-out: BJ reflex evoking activity ED50
Experimental: Male Wistar rats, 9 weeks old, were anesthetized with urethane 1 g/kg i.p. and the blood pressure and the heart rate were determined under artificial ventilation.
1) 5-HT3 receptor stimulating action (Bezold-Jarisch reflex evoking action)

Row | SMILES | inhibition by 5-HT3 receptor antagonist of the decreases in heart rate and blood pressure induced by the compound of the present invention [1] | BJ reflex evoking activity Emax (maximal bradycardiac response) ([2]; i.v., anesthetized rat) [beats/min] | ED50 ([2]; rat) [mg/kg] | Bezold-Jarisch reflex evoking activity, potency relative to serotonin ([2]; i.v., rat, versus serotonin) | ED50 ([2]; anesthetized rat) [mg/kg]
1 | Cc1nccn1CC1CCc2c(c3ccccc3n2C)C1=O (racemic) [GR38032F] | competitively inhibited |  |  |  | 
2 | Cc1[nH]c2ccc(O)cc2c1CCN [2-Methylserotonin, 2-methylserotonin] |  | 259.0 | 0.0374 |  | 
3 | COc1ccccc1Nc1nc2c(s1)CN(C)CC2.O=C(O)/C=C/C(=O)O [Example 1, 2-(o-methoxyanilino)-5-methyl-4,5,6,7-tetrahydrothiazolo[5,4-c]pyridine fumarate] |  | 205.8 |  | about 5 fold | 0.00301
4 | CN1C2CCC1CC(OC(=O)c1c[nH]c3ccccc13)C2 (stereo not shown) [ICS 205-930] | competitively inhibited |  |  |  | 
